Results reported in patent US20240197716A1, “TREATMENTS FOR CUSHING'S SYNDROME THAT DO NOT SIGNIFICANTLY AFFECT CARDIAC RHYTHMS” (Corcept Therapeutics Incorporated, priority 2022, published 2024).
Values belong to the compound of their own block, whether it stands above or below them. Starred links: 1 amine or outer side, 2 acyl side, 3 side chain; linkers in the order of their positions; H or OH if unused. Non-standard residues stand in square brackets, D forms with d. Residues, ends and D or L forms follow the SMILES beside them. Groups on a side chain read outwards from the residue. *: point of attachment. Ethylenediamine = C(CN[*:2])N[*:1]; Hyp = O=C(O)[C@@H]1C[C@@H](O)CN1; Phg = N[C@H](C(=O)O)c1ccccc1; CO = O=C([*:1])[*:2]; Bn = c1ccc(C*)cc1

What was measured:
QT interval = settings: in vivo; cited from earlier work
[1] = test system: cardiac repolarization in healthy volunteers; experiment: Thorough QT/QTc (TQT) study (NCT04795479), cardiodynamic Holter ECG
Description: These studies included a randomized, partial double-blind, placebo- and positive-controlled, multiple-dose, 4-way crossover, thorough QT/QTc (TQT) study to investigate the effect of relacorilant on cardiac repolarization. These studies measured placebo-corrected change-from-baseline QTcF (ΔΔQTcF); change-from-baseline of QTcF, HR, and PR and QRS intervals (ΔQTcF, ΔHR, ΔPR, and ΔQRS); placebo-corrected change-from-baseline of HR, and PR and QRS intervals (ΔΔHR, ΔΔPR, and ΔΔQRS); categorical outliers for QTcF, HR, and PR and QRS intervals; the frequency of treatment-emergent changes of T-wave morphology and presence of U-waves; PK parameters of relacorilant and its metabolites (CORT125337, CORT125336, and CORT125295) and moxifloxacin; safety profiles, including AEs/SAEs, physical examination, clinical chemistry, hematology, urinalysis, ECG, and vital signs.
A phase 1, randomized, partial double-blind, crossover thorough QT study (NCT04795479) to assess the effect of multiple doses of relacorilant on cardiac repolarization in healthy volunteers. Participants were randomized to dosing sequences to receive relacorilant at therapeutic (400 mg QD, n=25) or supra-therapeutic (800 mg QD, n=28) doses, or placebo (n=29) for 5 days. Moxifloxacin (400 mg single dose, n=28) was used as a positive control.
Each subject received 4 treatments in a randomized sequence during the study period. Each dosing consisted of 8 capsules (except for moxifloxacin on Day 5), including: • Treatment T: Multiple oral doses of 400 mg relacorilant (4 capsules)+placebo for relacorilant (4 capsules) once daily for 5 days; • Treatment ST: Multiple oral doses of 800 mg relacorilant (8 capsules) once daily for 5 days; • Treatment P: Multiple oral doses of placebo for relacorilant (8 capsules) once daily for 5 days; • Treatment M: Multiple oral doses of placebo for relacorilant (8 capsules) once daily for 4 days and a final single oral dose of 400 mg moxifloxacin (one tablet) on Day 5.
In a portion of present study conducted in healthy subjects, a single dose of moxifloxacin (400 mg; Treatment M) on the last day of its respective treatment period was included as a positive control to determine the sensitivity of the study to detect small QTc changes. Relacorilant doses included both a therapeutic dose level (400 mg; Treatment T) and a supra-therapeutic dose level (800 mg; Treatment ST). The study was blinded to subjects, investigator, study staff, and sponsor with respect to relacorilant (Treatments T and ST) and placebo for relacorilant (Treatment P); it was open-labeled for moxifloxacin (Treatment M). Enrolled subjects were randomized to one of twelve (12) dosing sequences to receive 4 different treatments according to the assigned dosing sequence as shown below:
In each period, subjects were admitted to the clinical site in the morning of Day-1 and stayed in the site until the morning of Day 6. In the study periods when subjects were randomized to Treatment T, ST, or P, the applicable study product (400 mg or 800 mg relacorilant or placebo for relacorilant) were taken once daily in the morning for 5 consecutive days. During the dosing period of positive control (Treatment M), placebo for relacorilant were administered on Days 1 to 4 to align with the dosing schedule for the other three treatments and moxifloxacin were administered in an open-labeled manner as a single dose in the morning of Day 5. Therefore, the treatment on Days 1 to 4 were double-blinded; it was not known before the morning on Day 5 whether or not a subject was allocated to receive moxifloxacin. Each dosing period (from Periods 2 to 4) was separated from the previous period by a washout period of at least 10 days from Day 6 of the previous period to Day 1 (first dose) of the subsequent period to prevent a carryover effect. The final visit was on Day 6 of Period 4. A safety phone follow-up was scheduled at 7 days (±2 days) post the final visit/early termination (ET) visit.

[2] = Plasma concentrations in TQT study (LC-MS/MS, non-compartmental PK); assay type: in vivo, human; settings: human, plasma, oral; 400 mg single dose; read-out: Geometric Mean Cmax
Description: PK analyses were performed using non-compartmental methods to obtain estimates of the following parameters, where possible: […] Day 1: Cmax, Tmax, AUClast, and AUC0-24; Day 5: Cmax, Tmax, Cmin, AUClast, AUC0-tau, Cavg, FI, and AR. For moxifloxacin: Cmax, Tmax, AUClast, and AUC0-24. […] PK blood sampling for Day 1 was completed prior to dosing on Day 2.

SMILES: NCCCC[C@@H]1NC(=O)[C@@H](Cc2c[nH]c3ccccc23)NC(=O)[C@H](c2ccccc2)NC(=O)[C@@H]2C[C@@H](OC(=O)NCCN)CN2C(=O)[C@H](Cc2ccccc2)NC(=O)[C@H](Cc2ccc(OCc3ccccc3)cc2)NC1=O [pasoreotide] (cyclo([Hyp]([CO-Ethylenediamine])[Phg][dW]KY(Bn)F))
effect on QT interval (literature) (QT interval): associated with QT interval prolongation

SMILES: CC(=O)N1CCN(c2ccc(OC[C@@H]3CO[C@@](Cn4ccnc4)(c4ccc(Cl)cc4Cl)O3)cc2)CC1 [levoketoconazole]
effect on QT interval (literature) (QT interval): associated with QT interval prolongation

SMILES: N#Cc1ccc([C@H]2CCc3cncn32)c(F)c1 [osilodrostat]
effect on QT interval (literature) (QT interval): associated with QT interval prolongation

Cmax [2]: 1870 ng/mL
SMILES: COc1c(N2C[C@@H]3CCCN[C@@H]3C2)c(F)cc2c(=O)c(C(=O)O)cn(C3CC3)c12 [moxifloxacin, 1-cyclopropyl-7-[(S,S)-2,8-diazabicyclo[4.3.0]non-8-yl]-6-fluoro-8-methoxy-1,4-dihydro-4-oxo-3 quinoline carboxylic acid, reference compound]
LS mean (90% CI) ΔΔQTcF, peak value ([1]; 400 mg on day 5, 1.5 hours post-dose): 10.7 (7.3, 14.1) msec | QT effect of positive control ([1]; 400 mg single dose): expected QT prolongation | LS mean (90% CI) ΔQTcF ([1]; 400 mg single dose on day 5, 1 hour post-dose): 5.7 (3.3, 8.2) msec | LS mean (90% CI) ΔQTcF, maximum observed value ([1]; 400 mg single dose on day 5, 16 hours post-dose): 9.7 (7.2, 12.2) msec | ΔΔQTcF Estimate (msec) (90% CI), predicted at geometric mean Cmax ([1]; 400 mg single dose, PK/QTc population): 8.90 (5.96, 11.85)^2 msec | lower bound of the 90% CI around the LS mean ΔΔQTcF ([1]; 400 mg, at 4 of the 12 post-dose time points): exceeded 5 msec | effect on QT interval (literature) (QT interval): prolong the QT interval of the electrocardiogram in some patients
